Measured values: article PMC11597089, “Kratom Alkaloids: A Blood–Brain Barrier Specific Membrane Permeability Assay-Guided Isolation and Cyclodextrin Complexation Study” (Molecules, 2024)

What was measured:
[1] = ACE complex stability, DIME-β-CD; type: physicochemical; conditions: dimethylated-β-CD DS~14, 30 mM phosphate buffer pH 7.4, 25 °C
Description: (§1) To investigate the CD complexation behavior of the four kratom alkaloids, we aimed to develop an ACE method for a systematic comparative study. […] To ensure sufficient buffer capacity and to avoid excessive current and Joule heat generation, the buffer concentration was set to 30 mM, and the applied voltage was 15 kV.
(§2) The ACE experiments were performed by using Agilent 7100 and HP^3DCE instruments (Agilent Technologies, Waldbronn, Germany). Untreated fused silica capillaries (total length of 48.5 cm, effective length of 40 cm, inner diameter of 50 μm) were purchased from Agilent Technologies. The new capillaries were conditioned with a 1 M NaOH wash for 1 h, followed by a 30 min wash each with 0.1 M NaOH and purified water. Prior to all runs, the capillary was preconditioned by rinsing with background electrolyte for 3 min. During the measurements, 30 mM phosphate buffer at pH 7.4 (30 mM Na2HPO4-NaOH) was used. The background electrolyte contained CDs at various concentrations. Stock solutions of the studied kratom alkaloids (mitragynine, paynantheine, speciogynine, speciociliatine) were prepared separately in methanol (1 mg/mL), and, right before the measurements, appropriate dilutions with purified water were used to prepare the sample solutions, applying 0.1% DMSO as the electroosmotic flow (EOF) marker. The samples were injected hydrodynamically at 40 mbar for 3 s. The positive polarity voltage was set to 15 kV, and the capillary was set to 25 °C. The electropherograms were recorded at four wavelengths (200 nm, 210 nm, 215 nm, and 220 nm), and the data were evaluated at 215 nm. In each case, three parallel measurements were performed. The measurements were evaluated using Origin and CEval software (v. 0.6i3).
(§3) In order to determine the complex stability constants that characterized the strength of the complexes, the first step was to determine the effective mobility of the analyte at specific CD concentrations. Triangular peaks caused by electromigration dispersion are often observed in ACE measurements. […]

[2] = ACE complex stability, RAME-β-CD; type: physicochemical; conditions: randomly methylated-β-CD DS~12, 30 mM phosphate buffer pH 7.4, 25 °C
Description: as §1, §2
(§4) In order to determine the complex stability constants that characterized the strength of the complexes, the first step was to determine the effective mobility of the analyte at specific CD concentrations. Triangular peaks caused by electromigration dispersion are often observed in ACE measurements.
(§5) Assuming a 1:1 complexation ratio and that the equilibrium CD concentration is almost equal to the total CD concentration, a relationship between the effective mobility relative to the EOF and the complex stability constant can be described by Function (4) (4) μeff=μA+μACDKstabCD/1+KstabCD where µeff is the effective mobility of the analyte, µA and µACD are the free and complexed analyte mobilities, [CD] is the concentration of the selector, and Kstab is the complex stability constant.
(§6) In order to calculate the exact, apparent, averaged complex stability constant values, viscosity correction and ionic strength correction were used.

[3] = ACE complex stability, HP-β-CD; type: physicochemical; conditions: hydroxypropylated-β-CD DS~4.5, 30 mM phosphate buffer pH 7.4, 25 °C
Description: as §1, §2, §3

[4] = ACE complex stability, Sualfadex; type: physicochemical; conditions: hexakis-(6-deoxy-6-(2-carboxyethyl)thio)-α-CD, 30 mM phosphate buffer pH 7.4, 25 °C
Description: as §1, §2, §4, §5, §6

[5] = ACE complex stability, Phos-β-CD; type: physicochemical; conditions: phosphated-β-CD DS~2-6, 30 mM phosphate buffer pH 7.4, 25 °C
Description: as §1, §2, §4, §5, §6

[6] = ACE complex stability, SP-β-CD; type: physicochemical; conditions: sulfopropylated-β-CD DS~2, 30 mM phosphate buffer pH 7.4, 25 °C
Description: as §1
(§7) The ACE experiments were performed by using Agilent 7100 and HP^3DCE instruments (Agilent Technologies, Waldbronn, Germany). Untreated fused silica capillaries (total length of 48.5 cm, effective length of 40 cm, inner diameter of 50 μm) were purchased from Agilent Technologies. The new capillaries were conditioned with a 1 M NaOH wash for 1 h, followed by a 30 min wash each with 0.1 M NaOH and purified water. Prior to all runs, the capillary was preconditioned by rinsing with background electrolyte for 3 min. During the measurements, 30 mM phosphate buffer at pH 7.4 (30 mM Na2HPO4-NaOH) was used. The background electrolyte contained CDs at various concentrations. […] The electropherograms were recorded at four wavelengths (200 nm, 210 nm, 215 nm, and 220 nm), and the data were evaluated at 215 nm. […] The measurements were evaluated using Origin and CEval software (v. 0.6i3). […]

[7] = ACE complex stability, HxDMS-α-CD; type: physicochemical; conditions: hexakis-(2,3-O-dimethyl, 6-O-sulfo)-α-CD, 30 mM phosphate buffer pH 7.4, 25 °C
Description: as §1, §2, §4, §5, §6

[8] = ACE complex stability, Sugammadex; type: physicochemical; conditions: octakis(6-deoxy-6-(2-carboxyethyl)thio)-γ-CD, 30 mM phosphate buffer pH 7.4, 25 °C
Description: as §1, §7

[9] = ACE complex stability, SBE-β-CD DS~10.4; type: physicochemical; conditions: sulfobutyl-ether-β-CD DS~10.4, 30 mM phosphate buffer pH 7.4, 25 °C
Description: as §1, §7

[10] = ACE complex stability, S-β-CD; type: physicochemical; conditions: sulfated-β-CD DS~13, 30 mM phosphate buffer pH 7.4, 25 °C
Description: as §1, §7

[11] = phase-solubility study, β-CD; type: physicochemical; conditions: 30 mM phosphate buffer pH 7.4, room temperature
Description: (§8) Based on our ACE measurements, the promising CDs were selected for phase-solubility studies, along with the most widely used CD excipients, to investigate the effect of CD type and its concentration on mitragynine solubility. The experiments were conducted under conditions similar to those in the ACE measurements, applying 30 mM phosphate buffer (pH 7.4) and room temperature.
(§9) UV spectra and chromatograms were recorded at 200–400 nm, and the chromatogram obtained at 226 nm was used for quantitative analyses.
(§10) Solubility measurements were performed according to Higuchi and Connors. To each 1 mg mitragynine sample, the selected cyclodextrins were added. The final concentration of the CDs was in the range of 0–1 (m/v) %. Suspensions were shaken at room temperature for 24 h and filtered using 0.22 μm filters. The mitragynine concentration in the samples was determined by the above-described UHPLC-UV method. The solubility diagrams were constructed, and the stability constant (Kstab) and complexation efficacy (CE) were calculated using the following formulas:(5) Kstab=slope/S0(1−slope) (6) CE=slope/1−slope where S0 is the intrinsic solubility of a poorly soluble drug. The experiments were performed in a 30 mM phosphate buffer (pH 7.4).

[12] = phase-solubility study, RAME-β-CD; type: physicochemical; conditions: 30 mM phosphate buffer pH 7.4, room temperature
Description: as §8, §9, §10

[13] = phase-solubility study, Subetadex; type: physicochemical; conditions: 30 mM phosphate buffer pH 7.4, room temperature; for complexation efficacy (CE) with Subetadex: phase solubility, calculated from the linear part of the isotherm
Description: as §8
In the case of Subetadex, which had the highest solubility enhancement, an AN-type isotherm could be observed with a negative deviation from linearity, indicating a complex process: either the host ratio inside the complex increased, the solvent–solute interactions altered, or both contributed simultaneously.
as §9, §10

[14] = phase-solubility study, Sugammadex; type: physicochemical; conditions: 30 mM phosphate buffer pH 7.4, room temperature
Description: as §8, §9, §10

[15] = set-up: method as in PMID 25793541; conditions: at neutral pH; cited from earlier work
[16] = set-up: method as in PMID 24841968; conditions: after 2 h; cited from earlier work
[17] = set-up: method as in PMID 20454783; conditions: rats, in words; cited from earlier work
[18] = set-up: method as in PMID 28551311; conditions: in vivo microdialysis technique, in words; cited from earlier work

Row | Compound | complex stability constant (Kstab) with DIME-β-CD [1] | complex stability constant (Kstab) with RAME-β-CD [2] | complex stability constant (Kstab) with HP-β-CD [3] | complex stability constant (Kstab) with Sualfadex [4] | complex stability constant (Kstab) with Phos-β-CD [5] | complex stability constant (Kstab) with SP-β-CD [6] | complex stability constant (Kstab) with HxDMS-α-CD [7] | complex stability constant (Kstab) with Sugammadex [8] | other results
1 | C=C[C@H]1CN2CCc3c([nH]c4cccc(OC)c34)[C@@H]2C[C@@H]1/C(=C\OC)C(=O)OC [Paynantheine, paynantheine] | 325 ± 30 M⁻¹ | 170 ± 30 M⁻¹ | 75 ± 5 M⁻¹ | 80 ± 15 M⁻¹ | 335 ± 30 M⁻¹ | 335 ± 35 M⁻¹ | 110 ± 8 M⁻¹ |  | 
2 | CC[C@@H]1CN2CCc3c([nH]c4cccc(OC)c34)[C@H]2C[C@@H]1/C(=C\OC)C(=O)OC [Speciociliatine, speciociliatine] | 100 ± 6 M⁻¹ | 20 ± 2 M⁻¹ | 30 ± 3 M⁻¹ | 250 ± 45 M⁻¹ | 215 ± 15 M⁻¹ |  | 240 ± 20 M⁻¹ | 700 ± 45 M⁻¹ | 
3 | CC[C@H]1CN2CCc3c([nH]c4cccc(OC)c34)[C@@H]2C[C@@H]1/C(=C\OC)C(=O)OC [Speciogynine, speciogynine] |  | 40 ± 1 M⁻¹ |  | 75 ± 20 M⁻¹ | 420 ± 30 M⁻¹ |  | 40 ± 4 M⁻¹ |  | complex stability constant (Kstab) with SBE-β-CD DS~10.4 [9]: ~10,000 M^−1; complex stability constant (Kstab) with S-β-CD [10]: 970 ± 80 M⁻¹
4 | mitragynine | 150 ± 15 M⁻¹ | 95 ± 9 M⁻¹ | 35 ± 2 M⁻¹ | 200 ± 25 M⁻¹ | 290 ± 30 M⁻¹ | 210 ± 25 M⁻¹ | 50 ± 10 M⁻¹ | 2050 M⁻¹ | Kstab with β-CD (phase solubility) ([11]; 24 h, CD 0–1 (m/v) %): 55 M⁻¹; complexation efficacy (CE) with β-CD ([11]; phase solubility): 0.0021; Kstab with RAME-β-CD (phase solubility) ([12]; 24 h, CD 0–1 (m/v) %): 60 M⁻¹; complexation efficacy (CE) with RAME-β-CD ([12]; phase solubility): 0.0023; phase-solubility isotherm type with Subetadex [13]: AN-type; Kstab with Subetadex (phase solubility) ([13]; 24 h, CD 0–1 (m/v) %): 1730 M⁻¹; complexation efficacy (CE) with Subetadex [13]: 0.0650; complexation efficacy (CE) with Subetadex ([13]; listed as mitragynine): 0.065; Kstab with Sugammadex (phase solubility) ([14]; 24 h, CD 0–1 (m/v) %): 1150 M⁻¹; complexation efficacy (CE) with Sugammadex ([14]; phase solubility): 0.0431; aqueous solubility [15]: 88 µg/mL; degraded under acidic conditions [16]: more than 26%; oral bioavailability [17]: limited; blood–brain barrier permeability [18]: excellent
